Results: patent US20230061319A1, “METHODS OF TREATING TUMORS” (CoImmune, Inc., priority 2020, published 2023)

Columns and labels:
CMV pp65 specific CTLs = assay: Induction of CMV pp65 specific recall CTLs by PME-CD40L DCs in the presence of mTOR inhibitors; assay type: cell-based, human
Description: 300 x 10^6 peripheral blood mononuclear cells (PBMCs) were cultured in 30 mL AIM-V media (Thermo Fisher Scientific) in T150 flasks (Corning) for 2 hours to provide for the adherence of monocytes. Non-adherent cells were removed by washing the monolayers twice with cold phosphate buffered saline (PBS) (Cambrex), and the remaining monocytes were cultured in X-VIVO 15 medium (Cambrex) for 5 days, supplemented with 1000 U/mL each of granulocyte macrophage-colony stimulating factor (GM-CSF) (Bayer AG, Leukine® liquid) and IL-4 (R&D Systems). To achieve DC maturation, immature DCs were first cultured on day 5 with 10 ng/mL tumor necrosis factor alpha (TNF-α) (R&D Systems), 1000 µ/mL interferon gamma (IFN-y) (Actimmune), and 1 µg/mL prostaglandin E2 (PGE2) (Sigma). On day 6, phenotypically mature DCs were co-electroporated with RNA encoding CD40L (Argos Lot No. 101606 JSC) at a concentration of 3 ug per million DCs plus either human cytomegalovirus (CMV) pp65 or MART-1 encoding RNAs at 2 µg per million DCs (CMVpp65 RNA-Argos Lot No 071107XF, MART-1-APL RNA-Argos Lot No. 011909HC). Generation of MART-1 RNA and CD40L RNA is described in e.g., DeBenedette et al., J. Immunol. 181(8):5296-5305 (2008).
Electroporated DCs were cultured for an additional 4 hours in X-VIVO 15 media supplemented with 800 µ/mL GM-CSF and 500 µ/mL IL-4 at 1 x 10^6 DCs/mL in low adherence 6-well plates (Costar). After 4 hr, the DCs were harvested by washing with cold PBS and prepared as a frozen formulation at 10 x 10^6 DCs/mL in 20% DMSO and 80% FBS, representing antigen electroporated Post Maturation Electroporated (PME)-CD40L DC preparations.
PME-CD40L DCs derived from HLA-A2-positive donors and transfected with antigen-encoding mRNAs were co-cultured with purified CD8^+ T cells. All co-cultures were performed in R-10 media. CD8^+ T cells were purified using the CD8+ T Cell Negative Selection Kit II (Miltenyi Biotec) from non-adherent cells harvested from the monocyte adherence step. The CD8^+ cells were mixed with DCs at a 10:1 ratio and incubated in the presence of 0.2 µg/mL IL-2 and 10 ng/mL IL-7 (R&D Systems). DC/T cell co-cultures were re-stimulated on day 7 and supplemented with 20 units/mL IL-2 plus 10 ng/mL IL-7. Induction of primary immune responses to MART-1 and memory/recall responses to CMV pp65 were measured on day 10.
To identify antigen-specific T cell responses and the phenotype of the antigen specific cells, T cells were harvested on day 10 post-stimulation and incubated with peptide-pulsed T2 target cells at a ratio of 10:1 for 4 hour with Brefeldin A, Monensin (BD Biosciences) and CD107a PE-Cy5. […] After 4 hours of co-culture, responder T cells were stained for 10 minutes with the requisite peptide/pentamer reagent, then washed once and re-stained with CD8-Eflour605, CD45RA-FITC, and CD28-APC. Cells were then washed in PBS and stained with Aquadye (BD Biosciences) for analysis of viability. Labeled cells were then fixed and permeabilized in Fixation/Permeabilization solution (eBiosciences). Cells where then stained with IFN-γ-PECy7, TNFa-AF700 and IL-2-PerCPcy5.5 in permeabilization buffer and resuspended in FACs buffer prior to acquisition.
CD8^+ cytotoxic T lymphocyte (CTL) responses were used to measure the pp65 CMV recall response induced by PME-CD40L DCs in the presence of mTOR inhibitors everolimus and temsirolimus. PME-CD40L DCs encoding CMV pp65 were used to stimulate recall CTL responses in the presence of the mTOR inhibitors under evaluation for compatibility with the CMN-001 product. The expansion of recall CTLs specific for CMV pp65 was determined on day 3 after a second weekly stimulation with PME-CD40L DCs.

mRCC patients = assay: Retrospective Kaplan-Meier analysis of overall survival in the Phase 3 ADAPT trial; assay type: in vivo, human
[1] = test system: healthy donor PBMC T cells; assay: Healthy donor PBMCs stimulated with autologous PME-CD40L-CMV DCs with mRCC patient plasma with or without everolimus; assay type: cell-based, human
Description: PBMCs and DCs were thawed and washed in PBS (Lonza) prior to counting. Post maturation electroporated monocyte-derived dendritic cells (PME-CD40L) were generated from healthy donors as described in DeBenedette MA. et al., J Immunol. 181(8):5296-5305 (2008) (incorporated herein by reference in its entirety), and were co-electroporated with RNA encoding the pp65 CMV protein and RNA encoding CD40L. Viable cell counts were performed using BD TruCount Absolute Counting Tubes and propidium iodide (BD Biosciences) by flow cytometry. PBMCs and DCs were re-suspended in X-Vivo15 (with gentamicin and phenol red) (Lonza) containing 10% normal human AB serum (Valley biomedical). […] Frozen PBMC vials from 2 HLA-mismatched healthy donors were thawed and counted. […] Purified Mouse anti-human CD3 (clone OKT3, BD Biosciences) was used to stimulate healthy donor PBMCs in culture.
HLA-mismatched healthy donor PBMCs were mixed and cultured for 7 days in the presence of 2% mRCC patient plasma and with or without 20 ng of everolimus added on day 0, and the frequency of CD28^+ memory T cells was determined. […] To expand the understating whereby everolimus can reduce the immune suppressive impact of mRCC, patient plasma PBMCs were stimulated with autologous DCs presenting the pp65 CMV antigen. Healthy donor PBMCs and autologous DCs were mixed and cultured for 6 days in the presence of 2% mRCC patient plasma and with or without 20 ng of everolimus added on day 0.
Furthermore, the impact of everolimus on the suppressive effect of mRCC patient plasma when PBMCs were stimulated with autologous DCs was examined.
To understand the ability of everolimus to restore the frequency of CD25^+CD28^+ T cells, the expression of both CD25 and CD28 on CD8 T cells stimulated in the MLR or with autologous DCs in the presence of mRCC patient plasma was measured by the geometric mean fluorescence intensity (MFI).

B cells = assay: TGF-β secretion by stimulated PBMCs from mRCC patients (ELISA); details: everolimus 10 ng/mL, 6 days, supernatant
Description: Frozen patient PBMC were thawed, counted, and washed in PBS. The cells were resuspended in X-VIVO 15 media (with gentamicin and phenol red; Lonza) at 2x10^6 cells/mL and incubated overnight in a 5% CO2 incubator at 37° C. The cells were counted and set up in culture at 1x10^6 cells/mL in X-VIVO 15 media. […] Everolimus (LC Laboratories) was added at 10 ng/mL to unstimulated or stimulated cultures. The cultures were incubated overnight in a 5% CO2 incubator at 37° C. for six days.
The concentration of total TGF-β1 in plasma and supernatant samples was quantified using the LEGEND MAX Total TGF-β1 ELISA Kit (Biolegend). Samples were prepared by acid treatment to activate latent TGF-β1 and then diluted 1:20 or 1:100 in assay buffer. Samples were incubated on a plate pre-coated with anti-TGF-β1 antibody for 2 hours. Anti-TGF-β1 was incubated for 1 hour, and the plate was washed and incubated with Avidin-HRP for 30 minutes. The plate was developed with TMB substrate solution and Stop solution, and was read at 450 nm and 570 nm using an ELx800 plate reader.
Thus, the impact of everolimus on B cell TGF-β production was investigated. PBMCs from mRCC patients were stimulated (“stim”) or left unstimulated (“control”) with or without everolimus addition as described in Example 1 to induce TGF-β secretion. TGF-β concentrations in the supernatant were measured after 6 days by ELISA.

[2] = 10 ng/ml, compared to DC/CTL co-cultures without mTOR inhibitor, day 3 after second weekly stimulation
[3] = autologous DCs 6 days, 2% mRCC patient plasma, 20 ng everolimus
[4] = autologous DCs, mRCC patient plasma, everolimus, statistically significant

SMILES: CO[C@H]1C[C@@H]2CC[C@@H](C)[C@@](O)(O2)C(=O)C(=O)N2CCCC[C@H]2C(=O)O[C@H]([C@H](C)C[C@@H]2CC[C@@H](OCCO)[C@H](OC)C2)CC(=O)[C@H](C)/C=C(\C)[C@@H](O)[C@@H](OC)C(=O)[C@H](C)C[C@H](C)/C=C/C=C/C=C/1C [everolimus]
- numbers of CMV pp65 specific CTLs (CMV pp65 specific CTLs; [2]): increase
- percentage of CMV pp65 specific CTLs (CMV pp65 specific CTLs; [2]): increase
- increase in absolute numbers of CMV+ CTL (CMV pp65 specific CTLs; 1 µg/ml): evident
- increase in percentage of CMV+ CTL (CMV pp65 specific CTLs; 1 µg/ml): evident
- OS (mRCC patients; SOC arm, everolimus during follow up): 13.4 months
- OS (mRCC patients; SOC arm, everolimus during treatment): 17.7 months
- OS (mRCC patients; combination arm (DC therapy), everolimus during follow up phase): 25.7 months
- OS (mRCC patients; combination arm (DC therapy), everolimus during treatment phase): 19.3 months
- median OS (mRCC patients; everolimus during the follow up phase (n=42), combination n=22, everolimus after SOC therapy n=20): 13.4 months
- median OS (mRCC patients; everolimus during the treatment phase (n=49), combination n=38, everolimus alone n=11): 17.8 months
- median overall survival (OS) (mRCC patients; everolimus treated population (n=91), everolimus as 2nd line, combination n=60, everolimus alone n=31): 13.6 months
- expression of CD25 on CD8 T cells (MFI) [1, 3]: statistically significant increase
- expression of CD28 on CD8 T cells (MFI) [1, 3]: statistically significant increase
- frequency of proliferating CD28- CD4 T cells [1, 3]: little impact
- frequency of proliferating CD28+ CD4 T cells suppressed by mRCC patient plasma ([1]; autologous DCs 6 days, 2% mRCC patient plasma, 20 ng everolimus on day 0, not statistically significant (p<0.283)): partially restored
- plasma mediated suppression of proliferating CD28+ CD8 T cells ([1]; autologous DCs 6 days, 2% mRCC patient plasma, 20 ng everolimus, p< 0.0002): partially reversed
- frequency of proliferating CD28- CD8 T cells ([1]; autologous DCs 6 days, 2% mRCC patient plasma, 20 ng everolimus, p<0.92): minimal ability to decrease
- frequency of CD25+CD28+ CD4 T cells ([1]; autologous DCs, mRCC patient plasma, everolimus, did not reach statistical significance): partially restored
- frequency of CD25+CD28+ CD8 T cells [1, 4]: partially restore
- frequency of CD25+CD28- CD8 T cells [1, 4]: partially restore
- concentration of TGF-β secreted by stimulated B cells (B cells): decrease
